Reference: patent publication US20130224234A1, “TTLL4 PEPTIDES AND VACCINES CONTAINING THE SAME” (Onco Therapy Science, Inc., priority 2010, published 2013)
“Also recorded” adds a separate entry of the source.

Columns and labels:
[1] = system: peptide-pulsed TISI cells; assay: In vitro CTL induction, IFN-gamma ELISPOT assay (HLA-A*2402); format: cell-based, human; details: CTLs induced with peptide from HLA-A*2402 positive donor, peptide-pulsed TISI vs control
Text: Monocyte-derived dendritic cells (DCs) were used as antigen-presenting cells to induce cytotoxic T lymphocyte (CTL) responses against peptides presented on human leukocyte antigen (HLA). DCs were generated in vitro as described elsewhere (Nakahara S et al., Cancer Res 2003, 63(14): 4112-8). Specifically, peripheral blood mononuclear cells isolated from a normal volunteer (HLA-A*2402 positive) by Ficoll-Plaque (Pharmacia) solution were separated by adherence to a plastic tissue culture dish (Becton Dickinson) so as to enrich them as the monocyte fraction. The monocyte-enriched population was cultured in the presence of 1000 U/ml of granulocyte-macrophage colony-stimulating factor (R&D System) and 1000 U/ml of interleukin (IL)-4 (R&D System) in AIM-V Medium (Invitrogen) containing 2% heat-inactivated autologous serum (AS). After 7 days of culture, the cytokine-induced DCs were pulsed with 20 micro-g/ml of each of the synthesized peptides in the presence of 3 micro-g/ml of beta 2-microglobulin for 3 hr at 37 degrees C. in AIM-V Medium. The generated cells appeared to express DC-associated molecules, such as CD80, CD83, CD86 and HLA class II, on their cell surfaces (data not shown). These peptide-pulsed DCs were then inactivated by X-irradiation (20 Gy) and mixing at a 1:20 ratio with autologous CD8+ T cells, obtained by positive selection with CD8 Positive Isolation Kit (Dynal). These cultures were set up in 48-well plates (Corning); each well contained 1.5×10^4 peptide-pulsed DCs, 3×10^5 CD8+ T cells and 10 ng/ml of IL-7 (R&D System) in 0.5 ml of AIM-V/2% AS medium. Three days later, these cultures were supplemented with IL-2 (CHIRON) to a final concentration of 20 IU/ml. On day 7 and 14, the T cells were further stimulated with the autologous peptide-pulsed DCs. The DCs were prepared each time by the same way described above. CTL was tested against peptide-pulsed TISI cells after the 3rd round of peptide stimulation on day 21 (Tanaka H et al., Br J Cancer 2001, 84(1): 94-9; Umano Y et al., Br J Cancer 2001, 84(8): 1052-7; Uchida N et al., Clin Cancer Res 2004, 10(24): 8577-86; Suda T et al., Cancer Sci 2006, 97(5): 411-9; Watanabe T et al., Cancer Sci 2005, 96(8): 498-506).
(§1) Specifically, peptide-pulsed TISI (1×10^4/well) was prepared as stimulator cells. Cultured cells in 48 wells were used as responder cells. IFN-gamma ELISPOT assay and IFN-gamma ELISA assay were performed under manufacture procedure.
CTLs for those peptides derived from TTLL4 were generated according to the protocols as described in “Materials and Methods”.

[2] = system: peptide-pulsed TISI cells; assay: IFN-gamma ELISA assay of CTL lines (HLA-A*2402); format: cell-based, human; details: CTL lines stimulated with peptide, target cells pulsed with peptide vs without peptide pulse
Description: CTLs were expanded in culture using the method similar to the one described by Riddell et al. (Walter E A et al., N Engl J Med 1995 333(16): 1038-44; Riddell S R et al., Nat Med 1996, 2(2): 216-23). A total of 5×10^4 CTLs were suspended in 25 ml of AIM-V/5% AS medium with 2 kinds of human B-lymphoblastoid cell lines, inactivated by Mitomycin C, in the presence of 40 ng/ml of anti-CD3 monoclonal antibody (Pharmingen). One day after initiating the cultures, 120 IU/ml of IL-2 were added to the cultures. The cultures were fed with fresh AIM-V/5% AS medium containing 30 IU/ml of IL-2 on days 5, 8 and 11 (Tanaka H et al., Br J Cancer 2001, 84(1): 94-9; Umano Y et al., Br J Cancer 2001, 84(8): 1052-7; Uchida N et al., Clin Cancer Res 2004, 10(24): 8577-86; Suda T et al., Cancer Sci 2006, 97(5): 411-9; Watanabe T et al., Cancer Sci 2005, 96(8): 498-506).
as §1
(§2) CTL activity of these CTL lines was determined by IFN-gamma ELISA assay (FIG. 2a-f). […] Furthermore, the CTL clones were established by limiting dilution from the CTL lines as described in “Materials and Methods”, and IFN-gamma production from the CTL clones against target cells pulsed peptide was determined by IFN-gamma ELISA assay. […] (FIG. 3a-d).

[3] = system: peptide-pulsed TISI cells; assay: IFN-gamma ELISA assay of CTL clones (HLA-A*2402); format: cell-based, human; details: CTL clones by limiting dilution, target cells pulsed with peptide vs control
Description: The dilutions were made to have 0.3, 1, and 3 CTLs/well in 96 round-bottomed micro titer plate (Nalge Nunc International). CTLs were cultured with 1×10^4 cells/well of 2 kinds of human B-lymphoblastoid cell lines, 30 ng/ml of anti-CD3 antibody, and 125 U/ml of IL-2 in a total of […] of AIM-V Medium containing 5% AS. 50 micro-l/well of IL-2 were added to the medium 10 days later so to reach a final concentration of 125 U/ml IL-2. CTL activity was tested on the 14th day, and CTL clones were expanded using the same method as described above (Uchida N et al., Clin Cancer Res 2004, 10(24): 8577-86; Suda T et al., Cancer Sci 2006, 97(5): 411-9; Watanabe T et al., Cancer Sci 2005, 96(8): 498-506).
as §1, §2

[4] = system: COS7 cells transfected with TTLL4 and HLA-A*2402; assay: Specific CTL activity against target cells expressing TTLL4 and HLA-A*2402; format: cell-based, African green monkey; details: for Specific CTL activity against COS7 cells transfected with both TTLL4 and HLA-A*2402: CTL line (9-103) or CTL clones (10-103, 10-773) established with peptide; for Specific CTL activity against control COS7 cells expressing either HLA-A*2402 or TTLL4: controls: COS7 transfected with only full length TTLL4 or only HLA-A*2402
Text: The cDNA encoding an open reading frame of target genes or HLA-A*2402 was amplified by PCR. The PCR-amplified product was cloned into a vector. The plasmids were transfected into COS7, which is the target genes and HLA-A*2402-null cell line, using lipofectamine 2000 (Invitrogen) according to the manufacturer's recommended procedures. After 2 days from transfection, the transfected cells were harvested with versene (Invitrogen) and used as the target cells (5×10^4 cells/well) for CTL activity assay.
The established CTL lines and clones raised against each peptide were examined for the ability to recognize target cells that express TTLL4 and HLA-A*2402 molecule. […] COS7 cells transfected with either full length of TTLL4 or HLA-A*2402 were prepared as the controls.

## AYFFCPSTL [SEQ ID NO: 6]
[1]; listed as TTLL4-A24-9-79
  Peptide specific CTL activity (IFN-gamma production, ELISPOT): potent IFN-gamma production; also recorded: significant and specific CTL activity
[2]
  IFN-gamma production of CTL lines (ELISA): potent IFN-gamma production
[3]; listed as TTLL4-A24-9-79
  IFN-gamma production of CTL clones (ELISA): Potent IFN-gamma productions

## CYLHSLPDLF [SEQ ID NO: 20]
[1]; listed as TTLL4-A24-10-103
  Peptide specific CTL activity (IFN-gamma production, ELISPOT): potent IFN-gamma production; also recorded: significant and specific CTL activity
[2]
  IFN-gamma production of CTL lines (ELISA): potent IFN-gamma production
[3]; listed as TTLL4-A24-10-103
  IFN-gamma production of CTL clones (ELISA): Potent IFN-gamma productions
[4]; listed as TTLL4-A24-10-103
  Specific CTL activity against COS7 cells transfected with both TTLL4 and HLA-A*2402: specific CTL activity; also recorded: potent CTL activity
[4]
  Specific CTL activity against control COS7 cells expressing either HLA-A*2402 or TTLL4: no significant specific CTL activity was detected

## RYLHKPYLI [SEQ ID NO: 1]
[1]; listed as TTLL4-A24-9-750
  Peptide specific CTL activity (IFN-gamma production, ELISPOT): potent IFN-gamma production; also recorded: significant and specific CTL activity
[2]
  IFN-gamma production of CTL lines (ELISA): potent IFN-gamma production
[3]; listed as TTLL4-A24-9-750
  IFN-gamma production of CTL clones (ELISA): Potent IFN-gamma productions

## SYDPLRIYLF [SEQ ID NO: 21]
[1]; listed as TTLL4-A24-10-773
  Peptide specific CTL activity (IFN-gamma production, ELISPOT): potent IFN-gamma production; also recorded: significant and specific CTL activity
[2]
  IFN-gamma production of CTL lines (ELISA): potent IFN-gamma production
[3]; listed as TTLL4-A24-10-773
  IFN-gamma production of CTL clones (ELISA): Potent IFN-gamma productions
[4]; listed as TTLL4-A24-10-773
  Specific CTL activity against COS7 cells transfected with both TTLL4 and HLA-A*2402: specific CTL activity; also recorded: potent CTL activity
[4]
  Specific CTL activity against control COS7 cells expressing either HLA-A*2402 or TTLL4: no significant specific CTL activity was detected
